Measurements as given in PMC7395068, “The evolution of strategies to minimise the risk of human drug-induced liver injury (DILI) in drug discovery and development” (Archives of Toxicology, 2020).
Where two headings read alike, the source gives them in different places.

What was measured:
[1] = ref Chen 2011; cited from earlier work
[2] = cited from earlier work; for DILI +VE (5-8), DILI -VE (-4) / DILI severity category: ref Chen 2016
HepG2 cells [3] = conditions: In vitro Assay; ref Tolosa 2012; cited from earlier work
[4] = cited from earlier work
PHH spheroids = conditions: In vitro Assay; ref Vorrink 2018; cited from earlier work
human hepatocytes = conditions: In vitro Assay; ref Xu 2008; cited from earlier work
hLiMTs [5] = test: Combined HCI (HCS) and cellular ATP 3D assay in hLiMTs; conditions: Microtissue model structural based (HCI); combined HCS and ATP, MEC < 25 × Cmax.tot cut-off
[6] = test system: HepG2 C3A spheroid, BSEP, Glu/Gal in HepG2 cells, bioactivation; conditions: cited from earlier work
[7] = read-out: Human plasma Cmax; total plasma Cmax.tot, median of 9 literature references; cited from earlier work
HepaRG spheroids = test: Combined HCI (HCS) and cellular ATP 3D assay in HepaRG spheroids; conditions: Microtissue model structural based (HCI); combined HCS and ATP, MEC < 25 × Cmax.tot cut-off
PHH = conditions: cited from earlier work
hLiMTs [8] = conditions: cited from earlier work
HepG2 cells [9] = conditions: In vitro Assay; ref Persson 2013; cited from earlier work
HepG2 cells [10] = conditions: In vitro Assay; ref O'Brien 2006; cited from earlier work
[11] = test system: HepG2 cells, primary human hepatocytes; conditions: In vitro Assay; ref Garside 2014; cited from earlier work
[12] = test system: THLE or HepG2 cells, isolated mitochondria, BSEP; conditions: In vitro Assay; ref Aleo 2019; cited from earlier work
[13] = In vitro Assay, ref Proctor 2017

O=C1NC(=O)C(c2ccccc2)(c2ccccc2)N1 [phenytoin]
DILI Score (FDA) (1-8) [1]: 3 | DILI +VE (5-8), DILI -VE (-4) [2]: +VE | DILI severity category [2]: vMost-DILI-Concern | Structural based (HCI) (HepG2 cells [3]): +VE | In vivo DILI ([4]; […]): +VE | In vivo DILI ([4]; ref Tolosa 2012): +VE | In vivo DILI ([4]; ref Vorrink 2018): +VE | In vivo DILI ([4]; ref Xu 2008): +VE | hLiMTs ATP <20 x Cmax (PHH spheroids): -VE | Structural based (HCI) (human hepatocytes): +VE

CC(C)[N+](C)(CCOC(=O)C1c2ccccc2Oc2ccccc21)C(C)C [propantheline bromide]
DILI severity category (Chen et al. [2016]) ([2]; LTKB DILIrank category, ref Chen et al. 2016): No | DILI severity category (Chen 2016) ([2]; human DILI classification, LTKB DILIrank, ref Chen et al. 2016): No | DILI prediction hLiMTs (HCS-MEC) (hLiMTs [5]): -VE | Bayesian Machine Learning DILI prediction, Williams (2019) ([6]; Bayesian modeling, ref Williams et al. 2019): -VE | Assigned DILI category ([4]; Chen et al. 2016 or literature alignment, ref Chen et al. 2016): 1 | Cmax [7]: 440 nM | DILI prediction HepaRG spheroids (HCS-MEC) (HepaRG spheroids): -VE | PHH/100xCmax, Proctor (2017) (PHH; 2D PHH, ATP, IC50 < 100 × Cmax.tot, ref Proctor et al. 2017): -VE | PHH/100uM, Proctor (2017) (PHH; 2D PHH, ATP, IC50 threshold 100 µM, ref Proctor et al. 2017): -VE | hLiMTs/100xCmax, Proctor (2017) (hLiMTs [8]; hLiMTs, ATP, IC50 < 100 × Cmax.tot, ref Proctor et al. 2017): -VE | hLiMTs/100uM, Proctor (2017) (hLiMTs [8]; hLiMTs, ATP, IC50 threshold 100 µM, ref Proctor et al. 2017): -VE

Cc1cn([C@H]2C=C[C@@H](CO)O2)c(=O)[nH]c1=O [stavudine]
DILI Score (FDA) (1-8) [1]: 8 | DILI +VE (5-8), DILI -VE (-4) [2]: +VE | DILI severity category [2]: vMost-DILI-Concern | Bayesian Machine Learning ([6]; In vitro Assay, ref Williams 2019): +VE | Structural based (HCI) (HepG2 cells [3]): -VE | Cluser analysis (HepG2 cells [9]): -VE | Structural based (HCI) (HepG2 cells [9]): +VE | In vivo DILI ([4]; […]): +VE | In vivo DILI ([4]; ref Aleo 2019): +VE | In vivo DILI ([4]; ref Garside 2014): +VE | In vivo DILI ([4]; ref O'Brien 2006): +VE | In vivo DILI ([4]; ref Persson 2013): +VE | In vivo DILI ([4]; ref Proctor 2017): +VE | In vivo DILI ([4]; ref Tolosa 2012): +VE | In vivo DILI ([4]; ref Vorrink 2018): +VE | In vivo DILI ([4]; ref Williams 2019): +VE | In vivo DILI ([4]; ref Xu 2008): +VE | Structural based (HCI) (HepG2 cells [10]): -VE | hLiMTs ATP <20 x Cmax (PHH spheroids): -VE | Structural based (HCI) (human hepatocytes): -VE | Cluster 1-6 +VE Assay [11]: -VE | PHH ATP <100uM (PHH; [13]): -VE | Partition Hybrid HRM Score [12]: -VE | Ro2 Hybrid HRM Score [12]: -VE | hLiMTs ATP <100uM (hLiMTs [8]; [13]): -VE
